Biological target: T1, IDO1 (Homo sapiens, UniProt P14902)
T1 construct: endogenous in cells; host or cells: HeLa cells (ATCC), IDO1 induced with 10 ng/mL IFNgamma
Experiment: IDO1 cell-based assay
Details: HeLa cells, 10 ng/mL IFNgamma, 24 hours with test compound; N-Formyl Kynurenine and L-tryptophan quantified by RFMS

T1 sequence (P14902 whole entry): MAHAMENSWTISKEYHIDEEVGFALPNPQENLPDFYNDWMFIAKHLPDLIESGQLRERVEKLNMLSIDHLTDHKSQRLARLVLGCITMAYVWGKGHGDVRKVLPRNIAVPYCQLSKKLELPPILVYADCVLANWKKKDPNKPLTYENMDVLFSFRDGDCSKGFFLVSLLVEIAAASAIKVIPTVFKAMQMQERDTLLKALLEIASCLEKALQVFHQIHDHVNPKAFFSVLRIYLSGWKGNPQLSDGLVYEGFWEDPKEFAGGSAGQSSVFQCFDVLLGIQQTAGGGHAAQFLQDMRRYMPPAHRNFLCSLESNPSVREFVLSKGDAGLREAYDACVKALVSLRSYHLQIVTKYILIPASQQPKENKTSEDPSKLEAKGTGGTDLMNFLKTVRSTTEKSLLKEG

IC50 | SMILES
289 nM | CC(C(=O)NC1CCC(F)(F)C1)[C@H]1[C@@H]2C[C@@H](n3cnc4cc(F)c(F)cc43)C[C@@H]21 (stereo partly drawn) [Example 32, 2-((1R,3s,5S,6r)-3-(5,6-difluoro-1H-benzo[d]-imidazol-1-yl)bicyclo-[3.1.0]hexan-6-yl)-N-(3,3-difluorocyclopentyl)-propanamide]
179 nM | CC(C(=O)Nc1ccn(C)n1)[C@H]1[C@@H]2C[C@@H](n3cnc4cc(F)c(F)cc43)C[C@@H]21 (stereo partly drawn) [Example 34, 2-((1R,3s,5S,6r)-3-(5,6-difluoro-1H-benzo[d]-imidazol-1-yl)bicyclo-[3.1.0]hexan-6-yl)-N-(1-methyl-1H-pyrazol-3-yl)-propanamide]
1.37 nM | O=C(N[C@H](C1CC1)[C@H]1[C@@H]2C[C@@H](Oc3ccnc4ccc(F)cc34)C[C@@H]21)c1ccc(Cl)cc1 [Example 38, 4-chloro-N-((R)-cyclo-propyl((1R,3s,5S,6r)-3-((6-fluoroquinolin-4-yl)oxy)-bicyclo[3.1.0]hexan-6-yl)-methyl)benzamide]
12.9 nM | CC(C(=O)NC12CC(c3ccc(F)cc3)(C1)C2)[C@H]1[C@@H]2C[C@@H](n3cnc4cc(F)c(F)cc43)C[C@@H]21 (stereo partly drawn) [Example 39, 2-((1R,3s,5S,6r)-3-(5,6-difluoro-1H-benzo[d]-imidazol-1-yl)bicyclo-[3.1.0]hexan-6-yl)-N-(3-(4-fluorophenyl)bicyclo-[1.1.1]pentan-1-yl)-propanamide]
192 nM | CC(C(=O)NC1CCC(F)(F)CC1)[C@H]1[C@@H]2C[C@@H](n3cnc4cc(F)c(F)cc43)C[C@@H]21 (stereo partly drawn) [Example 43, 2-((1R,3s,5S,6r)-3-(5,6-difluoro-1H-benzo[d]-imidazol-1-yl)bicyclo-[3.1.0]hexan-6-yl)-N-(4,4-difluorocyclohexyl)-propanamide]
6760 nM | CC(C(=O)NCC(F)(F)F)[C@H]1[C@@H]2C[C@@H](n3cnc4cc(F)c(F)cc43)C[C@@H]21 (stereo partly drawn) [Example 44, 2-((1R,3s,5S,6r)-3-(5,6-difluoro-1H-benzo[d]-imidazol-1-yl)bicyclo-[3.1.0]hexan-6-yl)-N-(2,2,2-trifluoroethyl)-propanamide]
663 nM | CC(C(=O)NCCC(F)(F)F)[C@H]1[C@@H]2C[C@@H](n3cnc4cc(F)c(F)cc43)C[C@@H]21 (stereo partly drawn) [Example 45, 2-((1R,3s,5S,6r)-3-(5,6-difluoro-1H-benzo[d]-imidazol-1-yl)bicyclo-[3.1.0]hexan-6-yl)-N-(3,3,3-bifluoropropyl)-propanamide]
41.3 nM | Cc1nc(NC(=O)C(C)[C@H]2[C@@H]3C[C@@H](n4cnc5cc(F)c(F)cc54)C[C@@H]32)ccc1C#N (stereo partly drawn) [Example 46, (R)-N-(5-cyano-6-methyl-pyridin-2-yl)-2-((1R,3s,5S,6r)-3-(5,6-difluoro-1H-benzo[d]-imidazol-1-yl)bicyclo-[3.1.0]hexan-6-yl)-propanamide]
14 nM | CC(C(=O)Nc1cnn(C(F)F)c1)[C@H]1[C@@H]2C[C@@H](n3cnc4cc(F)c(F)cc43)C[C@@H]21 (stereo partly drawn) [Example 47, 2-((1R,3s,5S,6r)-3-(5,6-difluoro-1H-benzo[d]-imidazol-1-yl)bicyclo-[3.1.0]hexan-6-yl)-N-(1-(difluoromethyl)-1H-pyrazol-4-yl)propanamide]
589 nM | CC(C(=O)Nc1cc(C2CC2)nn1C)[C@H]1[C@@H]2C[C@@H](n3cnc4cc(F)c(F)cc43)C[C@@H]21 (stereo partly drawn) [Example 48, N-(3-cyclopropyl-1-methyl-1H-pyrazol-5-yl)-2-((1R,3s,5S,6r)-3-(5,6-difluoro-1H-benzo[d]-imidazol-1-yl)bicyclo-[3.1.0]hexan-6-yl)-propanamide]
495 nM | CC(C(=O)Nc1cnc2ccccn12)[C@H]1[C@@H]2C[C@@H](n3cnc4cc(F)c(F)cc43)C[C@@H]21 (stereo partly drawn) [Example 50, 2-((1R,3s,5S,6r)-3-(5,6-difluoro-1H-benzo[d]-imidazol-1-yl)bicyclo-[3.1.0]hexan-6-yl)-N-(imidazo[1,2-a]pyridin-3-yl)propanamide]
23.9 nM | Cc1cc2ccc(NC(=O)C(C)[C@H]3[C@@H]4C[C@@H](n5cnc6cc(F)c(F)cc65)C[C@@H]43)cc2[nH]1 (stereo partly drawn) [Example 52, 2-((1R,3s,5S,6r)-3-(5,6-difluoro-1H-benzo[d]-imidazol-1-yl)bicyclo-[3.1.0]hexan-6-yl)-N-(2-methyl-1H-indol-6-yl)-propanamide]
10.5 nM | Cc1cnc(NC(=O)C(C)[C@H]2[C@@H]3C[C@@H](n4cnc5cc(F)c(F)cc54)C[C@@H]32)cn1 (stereo partly drawn) [Example 53, 2-((1R,3s,5S,6r)-3-(5,6-difluoro-1H-benzo[d]-imidazol-1-yl)bicyclo-[3.1.0]hexan-6-yl)-N-(5-methylpyrazin-2-yl)-propanamide]
275 nM | CC(C(=O)Nc1cc(C(F)(F)F)nn1C)[C@H]1[C@@H]2C[C@@H](n3cnc4cc(F)c(F)cc43)C[C@@H]21 (stereo partly drawn) [Example 55, 2-((1R,3s,5S,6r)-3-(5,6-difluoro-1H-benzo[d]-imidazol-1-yl)bicyclo-[3.1.0]hexan-6-yl)-N-(1-methyl-3-(trifluoromethyl)-1H-pyrazol-5-yl)-propanamide]
5.7 nM | CC(C(=O)Nc1ccc(C2CC2)nc1)[C@H]1[C@@H]2C[C@@H](n3cnc4cc(F)c(F)cc43)C[C@@H]21 (stereo partly drawn) [Example 56, N-(6-cyclopropylpyridin-3-yl)-2-((1R,3s,5S,6r)-3-(5,6-difluoro-1H-benzo[d]-imidazol-1-yl)bicyclo-[3.1.0]hexan-6-yl)-propanamide]
2.4 nM | CC(C(=O)Nc1cnc(Br)cn1)[C@H]1[C@@H]2C[C@@H](n3cnc4cc(F)c(F)cc43)C[C@@H]21 (stereo partly drawn) [Example 57, N-(5-bromopyrazin-2-yl)-2-((1R,3s,5S,6r)-3-(5,6-difluoro-1H-benzo[d]-imidazol-1-yl)bicyclo-[3.1.0]hexan-6-yl)-propanamide]
3.7 nM | CC(C(=O)Nc1ccc(C(F)(F)F)cn1)[C@H]1[C@@H]2C[C@@H](Oc3ccnc4ccc(F)cc34)C[C@@H]21 (stereo partly drawn) [Example 59, 2-((1R,3s,5S,6r)-3-((6-fluoroquinolin-4-yl)oxy)-bicyclo[3.1.0]hexan-6-yl)-N-(5-(trifluoromethyl)-pyridin-2-yl)propanamide]
4.7 nM | CC(C(=O)Nc1ccc(C(F)(F)F)nc1)[C@H]1[C@@H]2C[C@@H](Oc3ccnc4ccc(F)cc34)C[C@@H]21 (some centres unmarked) [Example 60]
1.4 nM | CC(C(=O)Nc1ccc(C2CC2)nc1)[C@H]1[C@@H]2C[C@@H](Oc3ccnc4ccc(F)cc34)C[C@@H]21 (stereo partly drawn) [Example 63, N-(6-cyclopropylpyridin-3-yl)-2-((1R,3s,5S,6r)-3-((6-fluoroquinolin-4-yl)oxy)-bicyclo[3.1.0]hexan-6-yl)propanamide]
170 nM | C[C@H](C(=O)Nc1ccc(-c2cnn(C)c2)cc1)[C@H]1[C@@H]2C[C@@H](n3cnc4cc(F)c(F)cc43)C[C@@H]21 [Example 65, (S)-2-((1R,3R,5S,6r)-3-(5,6-difluoro-1H-benzo[d]-imidazol-1-yl)-bicyclo[3.1.0]hexan-6-yl)-N-(4-(1-methyl-1H-pyrazol-4-yl)phenyl)-propanamide]

Reference: US11046649B2, “Compounds useful as inhibitors of indoleamine 2,3-dioxygenase and/or tryptophan dioxygenase” (Board of Regents, The University of Texas System, priority 2018, dated 2021)
